Drawing on PubChem BioAssay (NCI), this text covers TGI and GI50 for 30 compounds.

Some test systems named below: HOP-92 NSCLC; U251 CNS; LXFL 529 NSCLC; DLD-1 colon; HOP-18 NSCLC; DMS 114 small cell lung; SNB-78 CNS.
What all share (assay): DTP human tumour cell line panel, 48 h

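1) Cells in 96-well plates. 2) Compound, 48 h, 5 concentrations. 3) Linear interpolation between surrounding doses. 4) Unreached endpoint = highest concentration. GI50: concentration for 50% inhibition of growth. At the TGI there is no net growth.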

What is called TGI is the concentration giving total growth inhibition. Lower therefore signals more potent growth arrest. As for `O=C1CCCC/C1=C/C=C/c1ccccc1`, the TGI in the assay on HOP-92 NSCLC, in the assay on U251 CNS, in the assay with LXFL 529 NSCLC, with DLD-1 colon and in the assay on HOP-18 NSCLC was above 100 µM each time.

As to `Cc1ccc(C)c(NC(=O)c2cc(-c3ccc([N+](=O)[O-])cc3)nc(N)n2)c1`, the TGI in the assay on HOP-92 NSCLC, with U251 CNS, with LXFL 529 NSCLC, in the assay on DLD-1 colon, in the assay with DMS 114 small cell lung and in the assay on HOP-18 NSCLC was above 100 µM throughout.

Take `O=c1cc(Cl)nc[nH]1`: the TGI in the assay with U251 CNS, in the assay on LXFL 529 NSCLC, in the assay with DLD-1 colon, in the assay on SNB-78 CNS, with DMS 114 small cell lung and in the assay with HOP-18 NSCLC was above 100 µM each time.

In the case of `O=c1ccccc2cccc(O)c12`, the concentration for total growth inhibition (TGI) in the assay on HOP-92 NSCLC, in the assay with U251 CNS, in the assay with LXFL 529 NSCLC, in the assay on DLD-1 colon, in the assay on SNB-78 CNS and with DMS 114 small cell lung was above 100 µM each time. In the assay with HOP-18 NSCLC, the TGI is above 100 µM.

Take `Cc1c(C(=O)/C=C/c2ccc(Cl)cc2)[n+](=O)c2ccccc2n1[O-]`: the TGI in the assay with HOP-92 NSCLC was 37.7 µM; in the assay with U251 CNS, 26.3 µM; in the assay with LXFL 529 NSCLC, 22.5 µM; in the assay on DLD-1 colon, 20.4 µM; with SNB-78 CNS, above 100 µM; with DMS 114 small cell lung it was 15.1 µM. The TGI with HOP-18 NSCLC stood at 57.7 µM.

Turning to `Cc1ccc(NC(=O)/C(CC(=O)c2c[n+](=O)c3ccccc3n2O)=N\NC(=O)C[n+]2ccccc2)cc1`, the TGI with U251 CNS, in the assay on LXFL 529 NSCLC, in the assay on DLD-1 colon, in the assay with SNB-78 CNS, with DMS 114 small cell lung and with HOP-18 NSCLC was above 100 µM throughout.

In the case of `C(=C\c1csnn1)/c1cccnc1`, the TGI in the assay with U251 CNS, with LXFL 529 NSCLC, in the assay on DLD-1 colon, with SNB-78 CNS, in the assay on DMS 114 small cell lung and with HOP-18 NSCLC was above 100 µM each time.

As to `CC(c1ccc(Br)cc1)C(C(=O)O)C(=O)O` (configuration not stated), the concentration for total growth inhibition (TGI) in the assay with U251 CNS, with LXFL 529 NSCLC, in the assay with DLD-1 colon, with SNB-78 CNS, with DMS 114 small cell lung and in the assay on HOP-18 NSCLC was above 100 µM each time.

Consider `CCOC(=O)/N=C(\N)SCc1ccccc1`, for which the TGI in the assay with HOP-92 NSCLC, in the assay with U251 CNS, in the assay on LXFL 529 NSCLC, in the assay on DLD-1 colon, with SNB-78 CNS and in the assay on DMS 114 small cell lung was above 100 µM each time. Besides, the TGI with HOP-18 NSCLC is above 100 µM.

Regarding `CC1=CC(C)(C)N=C2SC(c3ccc(Cl)cc3)=NN12`, the TGI in the assay on HOP-92 NSCLC is 61.5 µM; in the assay on U251 CNS, 90.9 µM; with LXFL 529 NSCLC, above 100 µM; in the assay on DLD-1 colon it was 58.1 µM; with SNB-78 CNS it was above 100 µM; in the assay on DMS 114 small cell lung, above 100 µM. The compound further returned a TGI in the assay with HOP-18 NSCLC of 80.5 µM.

In the case of `COc1ccc(C(c2ccc(C(C)C)cc(=O)c2O)c2c(O)cc3oc(-c4ccccc4)cc(=O)c3c2O)cc1` (configuration not stated), the TGI in the assay on HOP-92 NSCLC was 3.53 µM; with U251 CNS it was 22.3 µM; with LXFL 529 NSCLC, 71.6 µM; in the assay with DLD-1 colon, above 100 µM; with SNB-78 CNS, above 100 µM; with HOP-18 NSCLC, 80.4 µM.

For the compound `Cc1cc(NS(=O)(=O)c2ccc(NC(=O)c3cccc4c(N)c5ccccc5nc34)cc2)no1`, the TGI in the assay with U251 CNS was 78.2 µM; in the assay with LXFL 529 NSCLC, above 100 µM; with DLD-1 colon, above 100 µM; in the assay with SNB-78 CNS, 71.1 µM; in the assay on DMS 114 small cell lung, 45.6 µM.

As for `O=c1/c(=C/c2ccc(Cl)cc2Cl)sc2nc3ccccc3n12`, the TGI in the assay on HOP-92 NSCLC, in the assay with U251 CNS, with LXFL 529 NSCLC, with DLD-1 colon, in the assay on SNB-78 CNS and with DMS 114 small cell lung was above 100 µM each time. The compound also gave a TGI in the assay on HOP-18 NSCLC above 100 µM.

As to `CCCCCCCCCCCC(=O)OCC1OC(n2cc(F)c(=O)[nH]c2=O)C(N)C(OC(=O)CCCCCCCCCCC)C1O` (configuration not stated), the TGI in the assay with HOP-92 NSCLC was 98.8 µM; in the assay on U251 CNS, above 100 µM; in the assay with LXFL 529 NSCLC it was above 100 µM; with SNB-78 CNS, above 100 µM; in the assay on DMS 114 small cell lung, above 100 µM.

As to `N=C(N)SCCc1cn2ccccc2n1`, the TGI in the assay with U251 CNS, with DLD-1 colon, in the assay with SNB-78 CNS, in the assay with DMS 114 small cell lung and with HOP-18 NSCLC was above 100 µM throughout.

Consider `Nc1ccc(Nc2nc(F)nc(-c3c4ccccc4c4n3CCS4)n2)cc1`, for which the TGI in the assay on HOP-92 NSCLC was 30.5 µM; with U251 CNS it was 31 µM; in the assay on LXFL 529 NSCLC it was 31.1 µM; with DLD-1 colon it was 34.8 µM; in the assay on SNB-78 CNS, above 100 µM; in the assay on DMS 114 small cell lung, 37.7 µM. Moreover, in the assay on HOP-18 NSCLC, the TGI worked out at 33.9 µM.

As to `CC(=O)OC12c3ccccc3C1CCCCCC21OCCCO1` (configuration not stated), the TGI with U251 CNS, in the assay with LXFL 529 NSCLC, with DLD-1 colon, in the assay on SNB-78 CNS and in the assay with DMS 114 small cell lung was above 100 µM in each case.

Take `O=C(OCCOCBr)c1ccccc1`: the TGI in the assay with HOP-92 NSCLC, with U251 CNS, in the assay with LXFL 529 NSCLC, with DLD-1 colon, in the assay on SNB-78 CNS and in the assay with DMS 114 small cell lung was above 100 µM each time. In the assay on HOP-18 NSCLC, the TGI was above 100 µM.

In the case of `O=c1[nH]c(Br)nc2c(Br)c[nH]c12`, the TGI in the assay with HOP-92 NSCLC, in the assay with U251 CNS, in the assay on LXFL 529 NSCLC, in the assay on DLD-1 colon, with SNB-78 CNS and with DMS 114 small cell lung was above 100 µM each time. Also, the TGI in the assay with HOP-18 NSCLC is above 100 µM.

With `O=C(Nc1c(-c2nc3ccccc3[nH]2)sc(=S)n1-c1ccccc1)c1ccccc1`, the TGI in the assay with U251 CNS, in the assay on LXFL 529 NSCLC, in the assay with DLD-1 colon, with SNB-78 CNS, with DMS 114 small cell lung and in the assay with HOP-18 NSCLC was above 100 µM each time.

Regarding `C=C1CC(CCCl)(c2ccccc2)OC1=O` (configuration not stated), the TGI was 34.2 µM in the assay on HOP-92 NSCLC; above 100 µM with U251 CNS; 45.4 µM with LXFL 529 NSCLC; 42.5 µM in the assay with DLD-1 colon; above 81.8 µM in the assay on SNB-78 CNS; above 63.2 µM in the assay with DMS 114 small cell lung. The TGI in the assay with HOP-18 NSCLC was above 59.3 µM.

Take `O=c1c2ccc3cccc4c(=O)cc(c5ccccc15)-c2c34`: the TGI in the assay with U251 CNS, in the assay on LXFL 529 NSCLC, in the assay on DLD-1 colon, with DMS 114 small cell lung and with HOP-18 NSCLC was above 100 µM each time.

The term GI50 denotes the concentration that inhibits growth by half. Regarding `CCC[CH2][Sn]([CH2]CCC)([O]C(=O)c1cccc(F)c1)[O]C(=O)c1cccc(F)c1`, the GI50 in the assay with U251 CNS was 1.05 µM; in the assay with LXFL 529 NSCLC it was 0.228 µM; with DLD-1 colon, 1.11 µM; with SNB-78 CNS, 0.702 µM; in the assay on DMS 114 small cell lung it was 0.376 µM. Also, the TGI in the assay with U251 CNS stood at 2.26 µM; in the assay with LXFL 529 NSCLC, 0.664 µM; in the assay with DLD-1 colon, 2.32 µM; in the assay with SNB-78 CNS, 2.27 µM; with DMS 114 small cell lung, 1.63 µM.

Consider `CC(C)C(=O)N[C@@H](C)C(=O)N(Cc1ccc2ccccc2c1)N=O`, for which the TGI was above 100 µM with U251 CNS; above 100 µM with LXFL 529 NSCLC; above 100 µM with DLD-1 colon; above 100 µM with SNB-78 CNS; above 100 µM in the assay on DMS 114 small cell lung; 0.0979 µM in the assay on HOP-18 NSCLC.

With `O=C(O)/C(=C/c1ccccc1[N+](=O)[O-])c1ccccc1`, the TGI with U251 CNS, in the assay on LXFL 529 NSCLC, in the assay with DLD-1 colon, with SNB-78 CNS and with DMS 114 small cell lung was above 100 µM in each case.

On to `N=C(c1ccccc1)N(O)C1CCCCC1`, for which the TGI in the assay with HOP-92 NSCLC, in the assay with U251 CNS, with LXFL 529 NSCLC, in the assay with DLD-1 colon, with SNB-78 CNS and in the assay on DMS 114 small cell lung was above 100 µM in each case. The TGI with HOP-18 NSCLC was above 100 µM.

Consider `CCCNCc1nc2ccc(Br)cc2c(=O)n1CCC`, for which the TGI was found to be 26.3 µM with U251 CNS; 25.1 µM in the assay with LXFL 529 NSCLC; 21.7 µM with DLD-1 colon; 40.6 µM in the assay on SNB-78 CNS; 22.9 µM with DMS 114 small cell lung; 32.1 µM in the assay on HOP-18 NSCLC.

On to `Cc1ccccc1C(=O)Oc1ccc(Oc2ccccc2)cc1`, for which the TGI with U251 CNS, with LXFL 529 NSCLC, with DLD-1 colon, in the assay with SNB-78 CNS, with DMS 114 small cell lung and in the assay with HOP-18 NSCLC was above 100 µM in each case.

For `COc1ccc2c3c1C(=O)CCC3CO2` (configuration not stated), the TGI in the assay on HOP-92 NSCLC, in the assay with U251 CNS, in the assay on LXFL 529 NSCLC, in the assay with DLD-1 colon, in the assay with SNB-78 CNS and in the assay with DMS 114 small cell lung was above 100 µM throughout.

In the case of `CC(=O)N1CC2Nc3ccccc3C2CC1CO` (configuration not stated), the TGI in the assay with HOP-92 NSCLC, in the assay on U251 CNS, with LXFL 529 NSCLC, in the assay with DLD-1 colon, in the assay with SNB-78 CNS and with DMS 114 small cell lung was above 100 µM throughout.
